Non-standard residues stand in square brackets, D forms with d. Residues, ends and D or L forms follow the SMILES beside them.
Tests used:
[1] = Weight gain in chickens (cockerels); format: in vivo, P-46 breed
Procedure: The effect of the peptide on weight gain in chickens was examined. Tests were conducted on chickens of egg oriented productivity, "P-46" breed. 24 hour old cockerels were divided in 5 groups, 13 cockerels in each--one control group and 4 test groups.
The birds were given a full diet till they reached the age of 10 weeks. 100% of birds in both the control and test groups survived.
After 10 weeks, the cockerels were killed and examined.
Quality of the cockerel meat was tested on an organoleptic basis.

[2] = Weight gain in young bulls; format: in vivo; conditions: during the experiment
Procedure: There were 7 groups of animals having approximately the same weight, with 12 young bulls in each group. The age of the animals was 2 months. There were 6 test groups and one control. The test animals were administered Sedatin with water before they were fed or as intramuscular injections in the amounts shown in Table 12. All animals received the same diet and were kept in the same conditions. Two animals in the control group fell ill during the experiment, and were replaced by analogs.
Two groups, one control and one test, were chosen for the second stage of the experiment. The test group was administered the peptide mixed with feed, in the amount of 10 μg per 1 kg of body weight. The control group was not administered any of the peptide. The data was biometrically processed.

Weight gain in pigs = format: in vivo
Procedure: The purpose of the first stage of testing was to determine the optimal dose of the peptide necessary to achieve the desired weight gain and the most beneficial manner of administering the peptide. The first stage of testing was conducted over a period of 100 days.
The pigs were divided into seven groups of ten animals each. The animals were all aged 4-5 months, and weighed about the same. There was one control group and six test groups. All the groups were given an ordinary diet.
Test groups 2, 3, and 4 were administered the peptide (1.0, 5.0, 10.0 μg kg/body weight) with feed, for 20 days each month with a 10 day break. Test groups 5, 6, and 7 were administered the peptide by injections of 0.01% water solutions for five days each month with a 25 day break (0.1, 0.5 and 1.0 μg per body weight).
Physiological examinations and biochemical tests were carried out during the experiment. The pigs were weighed on the 30th, 65th and 100th days of the experiment. […] Administration of 1 μg per 1 kg of body weight by intramuscular injections achieved a weight gain 18% higher than the control group (group 6).
The second stage of the experiment lasted 95 days, after which the animals were killed. The second stage of the experiment was carried out only with groups three and six, in order to determine which method of administration of the peptide produced the best results. […]

C[C@@H](NC(=O)[C@H](Cc1ccc(O)cc1)NC(=O)[C@@H](N)CCCNC(=N)N)C(=O)N[C@@H](Cc1ccccc1)C(=O)NCC(=O)O [H-Arg-Tyr-D-Ala-Phe-Gly-OH] (H-RY[dA]FG-OH)
quality of cockerel meat (colour, smell, consistency, taste), organoleptic ([1]; all groups): the same as in the control group
birds survived ([1]; test groups, to age of 10 weeks): 100%
solubility in alcohol (alcohol): slightly soluble
solubility in chloroform (chloroform): practically insoluble
solubility in water (water): soluble
temperature, pulse and breath-rate [2]: no deviation from the control group
biochemical and physicochemical tests (Weight gain in pigs): no deviation from the control group
quality characteristics (pathological changes, decrease of fat layer, etc.) (Weight gain in pigs): No changes were observed

From patent publication US6248716A, “Peptide, a method for its preparation and a pharmaceutical composition containing the peptide” (priority 1999, dated 2001)
